Experimental findings from patent US20230241243A1, “CARRIER PARTICLE-DRUG CONJUGATES, SELF-IMMOLATIVE LINKERS, AND USES THEREOF” (priority 2020, published 2023) are described below.

One data set has as its system Human KB cells. Briefly: Cell viability assay of payloads (CellTiter-Glo 2.0). It is filed as cell-based. The settings on record: Homo sapiens, KB, 168 h, read-out: IC50 values (diluted in RPMI medium). As to the method: Method: Human KB cells (ATCC® CCL-17™) were cultured in folic acid free rpmi-1640 medium (ThermoFisher, GIBCO) for at least 7 days before the study. The cells were seeded in opaque 96-well plates and allowed to attach overnight (cell density was carefully controlled to be 3,000 cells per well at the time of assay). After that, cells were treated with drug analogs (suspended in the same RPMI-1640 medium) at a concentration of zero to 1,000 nM. After 7 days, cell viability was assessed using the CellTiter-Glo® 2.0 assay (Promega) according to the manufacturer's instructions. The percent of viable cells at each concentration was calculated by normalizing the luminescence values to the untreated control. The half-maximal inhibitory concentration (IC50) of the payloads were plotted and fitted by using the Prism 8 software (GraphPad). Table 2 provides the IC50 of the payloads of the present disclosure (‘+’ indicates 1-9.9 nm; ‘++’ indicates 10-100 nm).
(ATP-based viability assays read luminescence as a measure of living cells.)
The term IC50 denotes the concentration at which inhibition is half-maximal. Consider `CCc1c2c(nc3ccc(OCC(=O)NN)cc13)-c1cc3c(c(=O)n1C2)COC(=O)[C@]3(O)CC` [Example 385, (S)-2-((4,11-diethyl-4-hydroxy-3,14-dioxo-3,4,12,14-tetrahydro-1H-pyrano[3′,4′:6,7]indolizino[1,2-b]quinolin-9-yl)oxy)acetohydrazide], for which the IC50 is 10 to 100 nM.

As to `CCc1c2c(nc3ccc(OCCCN)cc13)-c1cc3c(c(=O)n1C2)COC(=O)[C@]3(O)CC` [Example 105], the IC50 lay in the range of 1 to 9.9 nM. Same read-out and setting: under `CC[C@@]1(O)C(=O)OCc2c1cc1n(c2=O)Cc2c-1nc1cc(F)c(C)c3c1c2[C@@H](NC(=O)C(O)c1ccc(N)cc1)CC3` (stereo partly drawn) [Example 458, 2-(4-aminophenyl)-N-((1S,9S)-9-ethyl-5-fluoro-9-hydroxy-4-methyl-10,13-dioxo-2,3,9,10,13,15-hexahydro-1H,12H-benzo[de]pyrano[3′,4′:6,7]indolizino[1,2-b]quinolin-1-yl)-2-hydroxyacetamide] stands 1 to 9.9 nM; under `CC[C@]1(O)C(=O)OCc2c1cc1n(c2=O)Cc2c-1nc1cc(F)c(C)c3c1c2[C@H](NC(=O)C(C)(C)C(=O)NN)CC3` [Example 410, N-((1R,9R)-9-ethyl-5-fluoro-9-hydroxy-4-methyl-10,13-dioxo-2,3,9,10,13,15-hexahydro-1H,12H-benzo[de]pyrano[3′,4′:6,7]indolizino[1,2-b]quinolin-1-yl)-3-hydrazineyl-2,2-dimethyl-3-oxopropanamide], 10 to 100 nM.

Test system in a further data set: not listed separately
In words: Drug-release assay of nanoparticle-conjugated linker-payloads under cleavage conditions (Cat-B, redox-responsive or pH-sensitive cleaving study), RP-HPLC. In kind it is in vitro ADME. The settings on record: linker-payload conjugated to DBCO-functionalized silica nanoparticle, 37° C., 24 hours. The gist of the method:
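Azide linker-drugs were click-conjugated to DBCO-functionalized ultrasmall silica nanoparticles and incubated under cleavage conditions, e.g., Cat-B in 25 mM MES, 5 mM DTT, pH 5.0. Released versus non-released drug was quantified by C18 RP-HPLC peak area. Gradients were 0.01% TFA water/acetonitrile for protease/redox linkers and water/acetonitrile for pH-sensitive linkers.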
As for `CCc1c2c(nc3ccc(OC(C(=O)N(C)C)c4ccc(NC(=O)[C@H](CCCNC(N)=O)NC(=O)[C@@H](NC(=O)CCOCCOCCOCCOCCOCCOCCOCCOCCOCCN=[N+]=[N-])C(C)C)cc4)cc13)-c1cc3c(c(=O)n1C2)COC(=O)[C@]3(O)CC` (stereo partly drawn) [Example 19, 1-azido-N-((2S)-1-(((2S)-1-((4-(1-(((S)-4,11-diethyl-4-hydroxy-3,14-dioxo-3,4,12,14-tetrahydro-1H-pyrano[3′,4′:6,7]indolizino[1,2-b]quinolin-9-yl)oxy)-2-(dimethylamino)-2-oxoethyl)phenyl)amino)-1-oxo-5-ureidopentan-2-yl)amino)-3-methyl-1-oxobutan-2-yl)-3,6,9,12,15,18,21,24,27-nonaoxatriacontan-30-amide], the “% of Payload Release in 24 Hours Under Cleavage Conditions” value is recorded as “+ (‘+’ indicates 5-25% release)”. On the same count and under the same terms, as for `CCc1c2c(nc3ccc(OCc4ccc(NC(=O)[C@H](CCCNC(N)=O)NC(=O)[C@@H](NC(=O)CCOCCOCCOCCOCCOCCOCCOCCOCCOCCN=[N+]=[N-])C(C)C)cc4)cc13)-c1cc3c(c(=O)n1C2)COC(=O)[C@]3(O)CC` [Example 48, 1-azido-N-((S)-1-(((S)-1-((4-((((S)-4,11-diethyl-4-hydroxy-3,14-dioxo-3,4,12,14-tetrahydro-1H-pyrano[3′,4′:6,7]indolizino[1,2-b]quinolin-9-yl)oxy)methyl)phenyl)amino)-1-oxo-5-ureidopentan-2-yl)amino)-3-methyl-1-oxobutan-2-yl)-3,6,9,12,15,18,21,24,27-nonaoxatriacontan-30-amide], the entry is “+ (‘+’ indicates 5-25% release)”. On the same count and under the same terms, as for `CCc1c2c(nc3ccc(OCCCSSC(C)(C)CNC(=O)CCOCCOCCOCCOCCOCCOCCOCCOCCOCCOCCOCCN=[N+]=[N-])cc13)-c1cc3c(c(=O)n1C2)COC(=O)[C@]3(O)CC` [Example 56, (S)-1-azido-N-(2-((3-((4,11-diethyl-4-hydroxy-3,14-dioxo-3,4,12,14-tetrahydro-1H-pyrano[3′,4′:6,7]indolizino[1,2-b]quinolin-9-yl)oxy)propyl)disulfanyl)-2-methylpropyl)-3,6,9,12,15,18,21,24,27,30,33-undecaoxahexatriacontan-36-amide], the entry is “+ (‘+’ indicates 5-25% release)”.
